From patent publication US8729087B2, “Compositions and methods for inhibition of the JAK pathway” (Rigel Pharmaceuticals, Inc., priority 2006, dated 2014)
Read-outs that look alike come from different tables or passages of the source.

Assays:
[1] = system: Ramos B-cell line stimulated with IL-4; test: Assay for Ramos B-Cell Line Stimulated with IL-4 (CD23 upregulation, FACS); type: cell-based, human; details: read-out: Example 2 (IC50, Ramos B-cell line stimulated with IL-4)
Description: One means of assaying for such inhibition is detection of the effect of the 2,4-pyrimidinediamine compounds on the upregulation of downstream gene products. In the Ramos/IL4 assay, B-cells are stimulated with the cytokine Interleukin-4 (IL-4) leading to the activation of the JAK/Stat pathway through phosphorylation of the JAK family kinases, JAK1 and JAK3, which in turn phosphorylate and activate the transcription factor Stat-6. […] To study the effect of inhibitors (e.g., the 2,4-substituted pyrimindinediamine compounds described herein) on the JAK1 and JAK3 kinases, human Ramos B cells are stimulated with human IL-4. Twenty to 24 hours post stimulation, cells are stained for upregulation of CD23 and analyzed using flow cytometry (FACS). […] An exemplary assay of this type is described in greater detail in Example 2.
B-cells stimulated with cytokine Interleukin-4 (IL-4) activate the JAK/Stat pathway through phosphorylation of the JAK family kinases, JAK-1 and JAK-3, which in turn phosphorylate and activate the transcription factor Stat-6. […] To study the effect of inhibitors on the JAK family kinases, human Ramos B cells are stimulated with human IL-4.
The Ramos B-cell line was acquired from ATCC (ATCC Catalog No. CRL-1596). The cells were cultured in RPMI 1640 (Cellgro, MediaTech, Inc., Herndon, Va., Cat No. 10-040-CM) with 10% fetal bovine serum (FBS), heat inactivated (JRH Biosciences, Inc, Lenexa, Kans., Cat No. 12106-500M) according to ATCC propagation protocol. Cells were maintained at a density of 3.5×10^5. The day before the experiment, Ramos B-cells were diluted to 3.5×10^5 cells/mL to ensure that they were in a logarithmic growth phase.
Cells were spun down and suspended in RPMI with 5% serum. 5×10^4 cells were used per point in a 96-well tissue culture plate. Cells were pre-incubated with compound or DMSO (Sigma-Aldrich, St. Louis, Mo., Cat No. D2650) vehicle control for 1 hour in a 37° C. incubator.
Cells were then stimulated with IL-4 (Peprotech Inc., Rocky Hill, N.J., Cat No. 200-04) for a final concentration of 50 units/mL for 20-24 hours. Cells were then spun down and stained with anti-CD23-PE (BD Pharmingen, San Diego, Calif., Cat No. 555711) and analyzed by FACS. Detection was performed using a BD LSR I System Flow Cytometer, purchased from Becton Dickinson Biosciences of San Jose, Calif.

[2] = system: Primary human T-cells; test: Primary Human T-Cell Proliferation Assay Stimulated with IL-2 (CellTiter-Glo); type: cell-based; details: read-out: Example 3 (IC50, primary human T-cell proliferation stimulated with IL-2)
Description: The activity of the active compounds of the invention may further be characterized by assaying the effect of the 2,4-pyrimidinediamine compounds described herein on the proliferative response of primary human T-cells. In this assay, primary human T-cells derived from peripheral blood and pre-activated through stimulation of the T-cell receptor and CD28, proliferate in culture in response to the cytokine Interleukin-2 (IL-2). This proliferative response is dependent on the activation of JAK1 and JAK3 tyrosine kinases, which phosphorylate and activate the transcription factor Stat-5. The primary human T-cells are incubated with the 2,4-pyrimidinediamine compounds in the presence of IL-2 for 72 hours and at the assay endpoint intracellular ATP concentrations are measured to assess cell viability. A reduction in cell proliferation compared to control conditions is indicative of inhibition of the JAK kinase pathway. An exemplary assay of this type is described in greater detail in Example 3.
Primary human T-cells derived from peripheral blood and pre-activated through stimulation of the T-cell receptor and CD28, proliferate in vitro in response to the cytokine Interleukin-2 (IL-2). This proliferative response is dependent on the activation of JAK-1 and JAK-3 tyrosine kinases, which phosphorylate and activate the transcription factor Stat-5.
Human primary T cells were prepared as follows. Whole blood was obtained from a healthy volunteer, mixed 1:1 with PBS, layered on to Ficoll Hypaque (Amersham Pharmacia Biotech, Piscataway, N.J., Catalog #17-1440-03) in 2:1 blood/PBS:ficoll ratio and centrifuged for 30 min at 4° C. at 1750 rpm. The lymphocytes at the serum: ficoll interface were recovered and washed twice with 5 volumes of PBS. The cells were resuspended in Yssel's medium (Gemini Bio-products, Woodland, Calif., Catalog #400-103) containing 40 U/mL recombinant IL2 (R and D Systems, Minneapolis, Minn., Catalog #202-IL (20 μg)) and seeded into a flask pre-coated with 1 μg/mL anti-CD3 (BD Pharmingen, San Diego, Calif., Catalog #555336) and […] (Immunotech, Beckman Coulter of Brea Calif., Catalog #IM1376). The primary T-cells were stimulated for 3-4 days, then transferred to a fresh flask and maintained in RPMI with 10% FBS and 40 U/mL IL-2.
Primary T-cells were washed twice with PBS to remove the IL-2 and resuspended in Yssel's medium at 2×10^6 cells/mL. 50 μL of cell suspension containing 80 U/mL IL-2 was added to each well of a flat bottom 96 well black plate. For the unstimulated control, IL-2 was omitted from the last column on the plate. Compounds were serially diluted in dimethyl sulfoxide (DMSO, 99.7% pure, cell culture tested, Sigma-Aldrich, St. Louis, Mo., Catalog No. D2650) from 5 mM in 3-fold dilutions, and then diluted 1:250 in Yssel's medium. 50 μL of 2× compound was added per well in duplicate and the cells were allowed to proliferate for 72 hours at 37° C.
Proliferation was measured using CellTiter-Glo® Luminescent Cell Viability Assay (Promega), which determines the number of viable cells in culture based on quantitation of the ATP present, as an indicator of metabolically active cells. The substrate was thawed and allowed to come to room temperature. After mixing the Cell Titer-Glo reagent and diluent together, 100 μL was added to each well. The plates were mixed on an orbital shaker for two minutes to induce lysis and incubated at room temperature for an additional ten minutes to allow the signal to equilibrate. Detection was performed using a Wallac Victor2 1420 multilabel counter purchased from Perkin Elmer, Shelton, Conn.

[3] = Homo sapiens, Ramos, IL-4 50 units/mL, 20-24 hours, anti-CD23-PE staining, FACS
[4] = Homo sapiens, T-cell, 72 h, IL-2, 72 hours, ATP quantitation (CellTiter-Glo)
[5] = IL-4 50 units/mL, 20-24 hours, anti-CD23-PE staining, FACS
[6] = IL-2, 72 hours, ATP quantitation (CellTiter-Glo)

| Structure (SMILES) | IC50 [1, 5] | IC50 [2, 6] | also measured |
| --- | --- | --- | --- |
| Cc1cnc(Nc2ccc(S(N)(=O)=O)cc2)nc1Nc1ccc2c(c1)C(NS(C)(=O)=O)CC2 (racemic) [VI-2, (+/−)-N2-(4-Aminosulfonylphenyl)-5-methyl-N4-[1-(methylsulfonyl)aminoindan-6-yl]-2,4-pyrimidinediamine] | – | – | IC50 [1, 3]: 279 nM; IC50 [2, 4]: 1020 nM |
| N#CCOc1ccc(Nc2nc(Nc3cccc(CS(N)(=O)=O)c3)ncc2F)cc1 [Compound I-1, N2-[3-(Aminosulfonylmethylene)phenyl]-5-fluoro-N4-(4-cyanomethyleneoxyphenyl)-2,4-pyrimidinediamine] | 48.9 nM | 93 nM | – |
| CCS(=O)(=O)NCc1ccc(Nc2nc(Nc3ccc(CS(=O)(=O)NC)cc3)ncc2C)cc1 [Compound I-2, N4-(4-ethylsulfonylaminomethyl)phenyl-5-methyl-N2-(4-methylaminosulfonylmethyl)phenyl-2,4-pyrimidinediamine] | 70.3 nM | 79.6 nM | – |
| CNS(=O)(=O)Cc1ccc(Nc2ncc(F)c(Nc3ccc(CNS(=O)(=O)C4CC4)cc3)n2)cc1 [Compound I-8, N4-(4-cyclopropylsulfonylaminomethyl)phenyl-5-fluoro-N2-(4-methylaminosulfonylmethyl)phenyl-2,4-pyrimidinediamine] | 147 nM | 229 nM | – |
| CCS(=O)(=O)NCc1ccc(Nc2nc(Nc3ccc(CS(=O)(=O)NC)cc3)ncc2F)cc1 [Compound I-10, N4-(4-ethylsulfonylaminomethyl)phenyl-5-fluoro-N2-(4-methylaminosulfonylmethyl)phenyl-2,4-pyrimidinediamine] | 285 nM | 424 nM | – |
| Cc1cnc(Nc2ccc(CNS(=O)(=O)C3CC3)cc2)nc1Nc1ccc(CNS(=O)(=O)C2CC2)cc1 [II-1, N2,N4-bis(4-cyclopropylsulfonylaminomethyl)phenyl-5-methyl-2,4-pyrimidinediamine] | 45.2 nM | 26 nM | – |
| Cc1cnc(Nc2ccc(CCNS(=O)(=O)C3CC3)cc2)nc1Nc1ccc(CCNS(=O)(=O)C2CC2)cc1 [II-2, N2,N4-bis[4-(2-cyclopropylsulfonylamino)ethyl]phenyl-5-methyl-2,4-pyrimidine diamine] | 202 nM | 317 nM | – |
| COc1cc(Nc2nc(Nc3ccc4c(c3)CN(S(N)(=O)=O)CC4)ncc2F)ccc1Cl [III-1, N2-(2-Aminosulfonyl-1,2,3,4-tetrahydroisoquinolin-7-yl)-N4-(4-chloro-3-methoxyphenyl)-5-fluoro-2,4-pyrimidinediamine] | – | – | IC50 [1, 3]: 129 nM; IC50 [2, 4]: 279 nM |
| NS(=O)(=O)N1CCc2ccc(Nc3ncc(F)c(Nc4ccc(CNS(=O)(=O)C5CC5)cc4)n3)cc2C1 [III-2, N2-(2-Aminosulfonyl-1,2,3,4-tetrahydroisoquinolin-7-yl)-N4-[4-(cyclopropylsulfonylaminomethyl)phenyl]-5-fluoro-2,4-pyrimidinediamine] | – | – | IC50 [1, 3]: 27.4 nM; IC50 [2, 4]: 16.6 nM |
| C#CCOc1ccc(Nc2nc(Nc3ccc4c(c3)CN(S(N)(=O)=O)CC4)ncc2F)cc1 [III-4, N2-(2-Aminosulfonyl-1,2,3,4-tetrahydroisoquinolin-7-yl)-N4-(4-(prop-2-ynyloxy)phenyl)-5-fluoro-2,4-pyrimidinediamine] | – | – | IC50 ([1]; Homo sapiens, Ramos): 101 nM; IC50 ([2]; Homo sapiens, T-cell, 72 h): 129 nM |
| CC1(C)Oc2cc(Nc3nc(Nc4cccc(CS(N)(=O)=O)c4)ncc3F)cnc2NC1=O [IV-1, N2-[3-(Aminosulfonylmethylene)phenyl]-N4-[2,2-dimethyl-3-oxo-4H-pyrid[1,4]oxazin-7-yl]-5-fluoro-2,4-pyrimidinediamine] | 133 nM | 482 nM | – |
| CN1C(=O)C(C)(C)Oc2cc(Nc3nc(Nc4cccc(CS(N)(=O)=O)c4)ncc3F)cnc21 [IV-2, N2-[3-(Aminosulfonylmethylene)phenyl]-N4-[2,2-dimethyl-3-oxo-4-methyl-pyrid[1,4]oxazin-7-yl]-5-fluoro-2,4-pyrimidinediamine] | 170 nM | 881 nM | – |
